Source: paper PMC8504577, “Evaluation of a Clinically Relevant Drug–Drug Interaction Between Rosuvastatin and Clopidogrel and the Risk of Hepatotoxicity” (Frontiers in Pharmacology, 2021)
Where “and” joins values, the source holds several entries; their conditions need not be identical. Equal values may be shown once. Entries after “also recorded” stand apart in the source; their conditions may differ. Read-outs that look alike come from different tables or passages of the source.

What was measured:
[1] = Plasma pharmacokinetic study in rats
Description: For the plasma pharmacokinetic study, 16 rats were randomly assigned into four groups (n = 4, each group, groups I to IV) and received oral (p.o.) administrations as oral gavage of CP (27 mg/kg) or the same volume of vehicle control for 20 days. Then, the rats were made to fast overnight before dosing but with free access to water. On day 21, rats in group I were treated with a p.o. dose as oral gavage of CP at 27 mg/kg and a single intravenous (i.v.) dose of RSV at 5 mg/kg. Rats in group II were treated with a p.o. dose as oral gavage of vehicle control and a single i.v. dose of RSV at 5 mg/kg. Rats in group Ⅲ were treated with a p.o. dose as oral gavage of CP at 27 mg/kg and a p.o. dose as oral gavage of RSV at 5 mg/kg. Rats in group Ⅳ were treated with a p.o. dose as oral gavage of vehicle control and a p.o. dose as oral gavage of RSV at 5 mg/kg. Blood samples (0.15 ml) were collected at 0, 1, 2, 5, 15, 30, 60, 120, 180, 360, 480, 600, and 720 min after administration of the i.v. dose of the RSV group and at 0, 5, 30, 60, 120, 180, 360, 480, 600, and 720 min for the p.o. dose as oral gavage of the RSV group. After each sampling, a volume of 0.15 ml physiologic saline solutions was administered to sustain isotonic fluid balance. Plasma samples were harvested by using a centrifuge and then stored at −80°C until analysis by LC-MS/MS.
A Shimadzu LC-30AD liquid chromatography system (Shimadzu, Kyoto, Japan) and an API4000 triple quadruple tandem mass spectrometer (Applied Biosystems/Sciex, Framingham, MA, United States) coupled with an ESI source was used for the LC-MS/MS analysis of in vivo samples. The separation was carried out on an Agilent Extend C18 column (1.8 µm, 4.6 mm × 30 mm, Agilent Technologies). The mobile phase consisting of acetonitrile (A) and water (B: 1 mM ammonium acetate and 1% (V/V) formic acid). […] The flow rate was 1 ml/min and the gradient elution method was as follows: 0.01 min (10% A)-0.4 min (10% A), 0.8 min (95% A)-2.0 min (95% A), and 2.3 min (10% A)-2.5 min (stop).
Phoenix WinNonlin® 7.1 (Pharsight Corporation, Mountain View, CA, United States) was used to calculate the pharmacokinetic parameters by the noncompartmental method. IC50 values were obtained by a computer-generated nonlinear least squares fit using GraphPad Prism 8.1 (GraphPad Software, San Diego, CA, United States). Statistical analysis was performed using SPSS ver. 22.0 (IBM, Chicago, IL, United States). The results are presented as mean ± S.D., unless otherwise stated. After testing for the homogeneity of variance, statistical analysis was performed with a one-way ANOVA followed by the LSD post hoc test or unpaired Student’s t-test. A probability (p) of less than 0.05, 0.01, and 0.001 was considered to be statistically significant, highly significant, and extremely significant, respectively.

[2] = test system: BCRP; settings: read-out: IC50 BCRP; BCRP-mediated RSV transport, Caco-2 cells; ref Elsby et al. (2016); cited from earlier work
[3] = test system: human primary hepatocytes; test: Cytotoxicity (MTT, AST, LDH) in cryopreserved human hepatocytes; format: cell-based
Description: (§1) Cytotoxicity was determined with MTT assay in cryopreserved human hepatocytes. Thawing and plating of cryopreserved hepatocytes were carried out according to the manufacturer’s protocol. […] 11 μL of 5 mg/ml MTT was added to each well of the plate, and then the plate was incubated at 37°C for 3–4 h. After the medium was aspirated, 150 μL of DMSO was added to dissolve the formazan. The absorbance at 570 nm was measured and corrected for background absorption at 690 nm using a SpectraMax® i3 plate reader (Molecular Devices, Silicon Valley, CA, United States). AST and LDH levels in the medium of parallel processed plates were measured by commercially available assay kits. […] All experiments were performed in triplicate.

[4] = test system: BCRP; settings: read-out: IC50 BCRP; BCRP-mediated RSV transport, membrane vesicles; ref Varma et al. (2019); cited from earlier work
[5] = test system: human primary hepatocytes
Description: Cytotoxicity was determined with MTT assay in cryopreserved human hepatocytes. Thawing and plating of cryopreserved hepatocytes were carried out according to the manufacturer’s protocol. Primary human hepatocytes at a density of 7×10^4 cells/well were cultured for 24 h after plating in 96-well collagen-coated plates. Then, the hepatocytes were treated with varying concentrations of RSV, CP, RSV plus CP, or tamoxifen and incubated for 24 or 96 h at 37°C. 11 μL of 5 mg/ml MTT was added to each well of the plate, and then the plate was incubated at 37°C for 3–4 h. After the medium was aspirated, 150 μL of DMSO was added to dissolve the formazan. The absorbance at 570 nm was measured and corrected for background absorption at 690 nm using a SpectraMax® i3 plate reader (Molecular Devices, Silicon Valley, CA, United States). AST and LDH levels in the medium of parallel processed plates were measured by commercially available assay kits. […] All experiments were performed in triplicate.
A Shimadzu LC-20AD liquid chromatography system (Shimadzu, Kyoto, Japan) and an API5000 triple quadrupole tandem mass spectrometer (Applied Biosystems/Sciex, Framingham, MA, United States) coupled with an electrospray ionization (ESI) source was used for the determination of in vitro samples. Chromatographic separation was conducted with gradient elution on a Synergi Hydro-RP column (30 × 2.0 mm, 4 μm, Phenomenex, Torrance, CA, United States). […] The mobile phase consisted of methanol (A) and water (B), both containing 0.1% (V/V) formic acid. The flow rate was 0.5 ml/min and the gradient elution was run using the following program: 0.01 min (15% A)-1.0 min (95% A), 1.5 min (95% A)-1.51 min (15% A), 2.5 min (stop).

[6] = human, ref Pinheiro et al., 2012, Remsberg et al., 2013, cited from earlier work
[7] = Cytotoxicity (MTT, AST, LDH) in cryopreserved human hepatocytes; format: cell-based; settings: human, cryopreserved primary human hepatocytes; 96 h incubation
Description: as §1

[8] = rats, p.o. RSV (group III vs IV)
[9] = rats, p.o. RSV (group III vs IV), not significant
[10] = 96 h co-exposure with 100 µM CP vs without CP

## COC(=O)[C@H](c1ccccc1Cl)N1CCc2sccc2C1 [CP, clopidogrel]
[1]; rats, after 8 h post-dosing
  Plasma concentration: undetectable
[2]
  IC50: 63 µM
[3]; 24 and 96 h incubation
  Cytotoxicity (MTT): no effect on cell viability; also recorded: did not show hepatotoxic effects
[3]; 96 h, presence of 100 µM CP
  AST level in medium: trend of increase
  LDH level in medium: missed statistical significance
[4]
  IC50: 104 µM
[5]; human
  Free medium concentration: 0.026 to 0.40 nM

## CC(C)c1nc(N(C)S(C)(=O)=O)nc(-c2ccc(F)cc2)c1/C=C/[C@@H](O)C[C@@H](O)CC(=O)O [RSV, rosuvastatin]
[6]; 20 mg RSV
  Increase of RSV AUC with concomitant CP: 2.0 fold
  Increase of RSV Cmax with concomitant CP: 2.2 fold
[6]; 40 mg RSV
  Increase of RSV AUC with concomitant CP: 1.7 fold
  Increase of RSV Cmax with concomitant CP: 1.3 fold
[1]; rat plasma, Group II: single i.v. RSV 5 mg/kg + p.o. vehicle control
  Vss (Vss/F): 1,148.40 ± 701.23 ml/kg
[1]; rats, i.v. RSV
  RSV AUC in presence of CP relative to absence: 1.76 fold
[1]; rats, i.v. RSV (group I vs II)
  Decrease of RSV CL by multiple p.o. doses of CP: 42.62% and 42.6%
  Increase of RSV plasma AUC0-infinity by multiple p.o. doses of CP: 76.29%
  Increase of RSV plasma AUC0–12h by multiple p.o. doses of CP: 75.55%
[1]; rats, i.v. RSV (group I vs II), not significant
  Increase of RSV Cmax by multiple p.o. doses of CP: 110.32%
[1]; rats, p.o. RSV
  RSV AUC in presence of CP relative to absence: 1.87 fold
[1]; [8]
  Decrease of RSV CL by multiple p.o. doses of CP: 43.27% and 43.3%
  Increase of RSV plasma AUC0-infinity by multiple p.o. doses of CP: 87.48%
  Increase of RSV plasma AUC0–12h by multiple p.o. doses of CP: 67.27%
[1]; [9]
  Decrease of RSV Vss by multiple p.o. doses of CP: 49.42%
  Increase of RSV Cmax by multiple p.o. doses of CP: 43.90%
[1]; read-out: CL (CL/F), rat plasma, Group II: single i.v. RSV 5 mg/kg + p.o. vehicle control
  clearance: 59.1 mL/min/kg
[3]; 96 h, co-incubation with 100 µM CP where combined
  Cytotoxicity (MTT): dose-dependent cytotoxicity
[7]
  IC50 at 96 h: 14.8 µM
[5]; [10]
  Cell to medium concentration ratio of RSV: significantly increased; also recorded: significantly enhanced
  Intracellular concentration of RSV: significantly increased; also recorded: significantly enhanced
